From patent US12503453B2, “USP7 inhibition” (Dana-Farber Cancer Institute, Inc., priority 2018, dated 2025) come the findings set out here.

In one assay the target is HEK293 proteome (USP7) (Homo sapiens (Human), UniProt Q93009). As to the kind of experiment: Compound 6-DTB proteome-wide profiling. Format: binding. The note with it: HEK293 cell lysates, 5 hours, 1 μM or 10 μM. The procedure:
HEK 293AD cells were lysed as described above, and the lysate was cleared by centrifugation. […] SDS was added to a final concentration of 1.2% (27.2 μL of a 10% stock), and denatured by heating to 80° C. for 5 minutes. After cooling to RT, 1125 μL 1×PBS was added to dilute the final SDS concentration to 0.2%. 50 μL streptavidin agarose slurry was added to each sample, followed by incubation at RT for 3 hours. After streptavidin enrichment, samples were washed vigorously (2×0.2% SDS, 3×PBS, 3×ddH2O). After the final wash, all supernatant was removed using a flat-bottom tip, and the resin was flash frozen and stored at −80° C. until workup for TMT labeling.
Streptavidin beads were resuspended in 95 μL 100 mM Tris pH 8.0. Each sample was denatured with 0.1% rapigest, reduced (10 mM dithiothreitol), alkylated (22.5 mM iodoacetamide), and digested with trypsin overnight at 37° C. […] Eluted peptides were then analyzed by nanoLC-MS as described (Ficarro, S. B. et al. Improved electrospray ionization efficiency compensates for diminished chromatographic resolution and enables proteomics analysis of tyrosine signaling in embryonic stem cells. Anal. Chem. 81, 3440-3447 (2009)) with a NanoAcquity UPLC system (Waters, Milford, MA) interfaced to a QExactive HF mass spectrometer (Thermofisher Scientific, San Jose, CA). […]

For assay [1], the system named is Ewing sarcoma cell lines, TP53 WT and mutant. In words: Cell proliferation (CellTiter-Glo), panel of Ewing sarcoma cell lines. Type of assay: cell-based. The note with it: WT and TP53-KO Ewing Sarcoma cells. The procedure:
Cells were plated in 384-well culture-treated plates and allowed to settle overnight. After drug treatment and appropriate incubation time, cell viability was assessed using the CellTiter-Glo Luminescent Cell Viability Assay (Promega). Luminescence was read on a Fluostar Omega Reader (BMG Labtech).
(In general: Cellular ATP, detected with luciferase, serves as a proxy for viable cell number.)

For a further assay, the target named is USP7 (Homo sapiens (Human), UniProt Q93009). In words: Competitive ABPP with HA-Ub-VS in MCF7 crude cell extracts. Format: binding. The note with it: read-out: IC50 of inhibition of HA-Ub-VS labeling. The procedure:
HA-Ub-VS experiments were performed as previously described in Lamberto, I. et al. Structure-Guided Development of a Potent and […] Selective Non-covalent Active-Site Inhibitor of USP7. Cell Chem. Biol. 24, 1490-1500 (2017). Briefly, target engagement lysis buffer (50 mM Tris pH 8.0, 150 mM NaCl, 5 mM MgCl2, 0.5 mM EDTA, 0.5% NP-40, 10% glycerol, 1 mM TCEP, protease and phosphatase inhibitors) was added to cell pellets on ice. Lysate was cleared by centrifugation and diluted to 1.67 mg/mL. Where indicated, 30 μL lysate was then incubated with inhibitors or DMSO for the indicated timepoints. 1 μM HA-Ub-VS was then added to the lysate and incubated at RT for the indicated time points. Labeling reactions were quenched with 4×LDS sample buffer (Thermo Fisher B0007) supplemented with 10% BME, vortexed vigorously, and heated to 95° C. for 5 minutes. Samples were resolved by SDS-PAGE and analyzed by Western blot with the indicated antibodies.

A further assay addresses DUBs in HEK293AD lysate (Homo sapiens, UniProt Q93009). As to the kind of experiment: In situ DUB profiling, competitive ABPP with Bio-Ub-PA/VME and quantitative MS. The note with it: HEK293 crude cell extract, 5 hours pre-incubation. Type of assay: binding. The procedure:
DUB profiling was performed using conditions similar to those in Lawson, A. P. et al. Identification of deubiquitinase targets of isothiocyanates using SILAC-assisted quantitative mass spectrometry. Oncotarget 5, (2017). HEK 293AD cells were lysed using target engagement lysis buffer (50 mM Tris pH 8.0, 150 mM NaCl, 5 mM MgCl2, 0.5 mM EDTA, 0.5% NP-40, 10% glycerol, 1 mM TCEP, protease and phosphatase inhibitors), and the lysate was cleared by centrifugation. […] Excess inhibitor was removed using a 30K Amicon spin filter, then the resulting lysate was incubated with 1 μM each of Biotin-Ub-PA and Biotin-Ub-VME for 90 minutes at RT. SDS was added to a final concentration of 1.2%, and samples were heated to 80° C. for 5 minutes. After cooling to RT, 1×PBS was added to dilute the final SDS concentration to 0.2%. […]
Streptavidin beads were resuspended in 95 μL 100 mM Tris pH 8.0. […] Eluted peptides were then analyzed by nanoLC-MS as described (Ficarro, S. B. et al. Improved electrospray ionization efficiency compensates for diminished chromatographic resolution and enables proteomics analysis of tyrosine signaling in embryonic stem cells. Anal. Chem. 81, 3440-3447 (2009)) with a NanoAcquity UPLC system (Waters, Milford, MA) interfaced to a QExactive HF mass spectrometer (Thermofisher Scientific, San Jose, CA). […]

Another assay relates to MCF7 cells. As to the kind of experiment: Cell cycle analysis by propidium iodide staining. Type of assay: cell-based. The note with it: 1 μM, 24 hours. As for the experimental part: For propidium iodide (PI) staining, treated cells (˜1 million per condition) were washed with cold PBS, then fixed in 80% ethanol overnight at −20° C. After fixing, cells were pelleted, washed with PBS, and reconstituted in 500 μL FxCycle PI/RNAse A staining solution (Thermo Fisher). Cells were stored overnight at 4° C. and analyzed using a BD Fortessa flow cytometer.

Where two headings read alike, the source gives them in different places.

Chain of USP7 (Q93009 whole entry): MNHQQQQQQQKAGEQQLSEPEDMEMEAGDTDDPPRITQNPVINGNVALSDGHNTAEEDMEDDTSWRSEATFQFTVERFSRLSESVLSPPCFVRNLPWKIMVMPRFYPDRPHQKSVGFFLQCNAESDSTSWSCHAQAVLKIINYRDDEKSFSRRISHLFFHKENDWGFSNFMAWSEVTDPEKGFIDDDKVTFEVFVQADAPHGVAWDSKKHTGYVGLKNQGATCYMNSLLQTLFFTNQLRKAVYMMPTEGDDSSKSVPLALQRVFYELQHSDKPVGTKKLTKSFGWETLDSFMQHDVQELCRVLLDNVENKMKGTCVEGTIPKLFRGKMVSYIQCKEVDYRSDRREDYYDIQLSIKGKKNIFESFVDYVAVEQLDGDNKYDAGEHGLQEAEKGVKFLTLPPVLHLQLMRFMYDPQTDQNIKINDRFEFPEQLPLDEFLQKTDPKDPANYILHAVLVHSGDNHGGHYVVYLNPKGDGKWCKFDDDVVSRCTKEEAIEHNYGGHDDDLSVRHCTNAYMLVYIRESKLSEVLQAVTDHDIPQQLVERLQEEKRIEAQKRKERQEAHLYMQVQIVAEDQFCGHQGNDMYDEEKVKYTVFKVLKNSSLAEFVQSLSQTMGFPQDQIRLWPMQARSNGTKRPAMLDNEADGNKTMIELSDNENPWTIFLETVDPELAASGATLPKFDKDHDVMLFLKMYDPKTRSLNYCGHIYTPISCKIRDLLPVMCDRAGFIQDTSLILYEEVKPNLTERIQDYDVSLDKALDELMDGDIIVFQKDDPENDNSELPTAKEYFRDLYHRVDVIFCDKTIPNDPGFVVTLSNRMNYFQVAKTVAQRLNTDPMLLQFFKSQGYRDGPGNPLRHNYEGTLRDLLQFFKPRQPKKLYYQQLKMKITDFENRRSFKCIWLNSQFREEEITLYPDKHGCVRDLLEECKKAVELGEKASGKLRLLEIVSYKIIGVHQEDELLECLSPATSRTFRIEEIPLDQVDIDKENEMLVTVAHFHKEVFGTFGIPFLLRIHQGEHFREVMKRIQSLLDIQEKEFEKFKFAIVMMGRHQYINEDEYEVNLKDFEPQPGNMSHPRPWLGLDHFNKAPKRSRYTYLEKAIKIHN
Chain of HEK293 proteome (USP7) (Q93009 whole entry): as above

For `CN1CCN(CCC(=O)Nc2ccc3c(=O)n(CC4(O)CCN(C(=O)[C@@H](CCCNC(=O)c5ccc6c(Cl)c7c(nc6c5)CCCC7)Cc5ccccc5)CC4)cnc3c2)CC1` [compound 6, (S)—N-(4-benzyl-5-(4-hydroxy-4-((7-(3-(4-methylpiperazin-1-yl)propanamido)-4-oxoquinazolin-3(4H)-yl)methyl)piperidin-1-yl)-5-oxopentyl)-9-chloro-5,6,7,8-tetrahydroacridine-3-carboxamide], the “inhibition of compound 6-DTB labeling of USP7 (only protein of 566)” value against HEK293 proteome (USP7) was over 3 fold. In addition, in assay [1], the “TP53 dependence of cell killing” value was “highly TP53-dependent cell killing”. In addition, the IC50 is 85 nM on USP7 (30 min preincubation) and 8 nM at USP7 (4 hr preincubation). The “blocking of USP7 labeling by DUB ABPs” value on DUBs in HEK293AD lysate is reported as “significantly blocked USP7 labeling”. In addition, the cell cycle effect entry in the assay on MCF7 cells is reported as “complete G1 arrest”.

What is called IC50 is the midpoint of a concentration-inhibition curve.
